Experimental data published in patent US4358458A, “Tertiary imidazolyl alcohols and method for the treatment of generalized and local infections caused by fungi and yeasts” (Nordmark-Werke GmbH, priority 1976, dated 1982).

Tests used:
[1] = tested on: Candida albicans; experiment: oral activity in Candida-infected mice (survival); format: in vivo; conditions: 100 mg/kg orally twice a day for 7 days; for Number of Animals surviving on day 1 after infection / Number of Animals surviving on day 2 after infection / Number of Animals surviving on day 3 after infection / Number of Animals surviving on day 4 after infection / Number of Animals surviving on day 5 after infection / Number of Animals surviving on day 6 after infection / Number of Animals surviving on day 7 after infection: groups of 10 mice
Method: In order to determine oral activity, groups of 10 mice weighing approximately 20 g were pretreated for 2 days with intramuscular doses of 50 mg/kg of hydrocortisone in order to obtain firm rooting of the infection. The mice were then each infected intravenously with 500,000 Candida albicans germs and subsequently treated orally twice a day for 7 days with 100 mg/kg of the substance to be tested. In addition to an infected, but untreated control group, another group was treated for comparison with the comparison substance MICONAZOL.

[2] = LD50 (mice); conditions: mouse, in vivo
[3] = tested on: Candida albicans; experiment: series dilution test in vitro, Candida albicans; format: cell-based; conditions: dilution b=1:100,000
Method: The antimicrobial activity of the compounds corresponding to general formula (I) in vitro was tested in a series dilution test with dilution ratios of from 1:10,000 to 1:200,000 against the germs Staphylococcus aureus, Trichophyton mentagrophytes and Candida albicans.
The results were evaluated by the following graduations of the growth inhibition level:
.phi.=complete inhibition
The following dilution ratios were selected as the dilution ratio V: […]

With `OC(Cc1ccc(Cl)cc1)(Cn1ccnc1)c1ccc(Cl)cc1` (stereo not drawn) [Example 8, 1,2-bis-(4-chlorophenyl)-3-(imidazol-1-yl)-propan-2-ol nitrate] as the molecule, how does the “Number of Animals surviving on day 1 after infection” value (from here on “Number … on day 1 after infection”) [1] read?
The value was 10.

What about the “Number of Animals surviving on day 2 after infection” value (“Number … on day 2 after infection” below) [1] of the same molecule?
Its value is 10.

What about the “Number of Animals surviving on day 3 after infection” value (shortened to “Number … on day 3 after infection”) [1] of the same molecule?
Its value is 10.

And the “Number of Animals surviving on day 4 after infection” value (“Number … on day 4 after infection” for short) [1]?
Its value is 10.

And the “Number of Animals surviving on day 5 after infection” value (“Number … on day 5 after infection” below) [1]?
The value was 10.

And the “Number of Animals surviving on day 6 after infection” value (shortened to “Number … on day 6 after infection”) [1]?
The value was 10.

And the “Number of Animals surviving on day 7 after infection” value (“Number … on day 7 after infection” for short) [1]?
Its value is 10.

And the LD50 [2]?
The LD50 was 1000 mg/kg.

With `OC(Cc1ccc(Cl)cc1Cl)(Cn1ccnc1)c1ccc(Cl)cc1Cl` (stereo not drawn) [Example 9, 1,2-bis-(2,4-dichlorophenyl)-3-(imidazol-1-yl)-propan-2-ol-nitrate] as the molecule, how does the “Number … on day 1 after infection” value [1] read?
The value was 10.

What about the “Number … on day 2 after infection” value [1] of the same molecule?
The value was 10.

And the “Number … on day 3 after infection” value [1]?
The value was 10.

And the “Number … on day 4 after infection” value [1]?
Its value is 10.

What about the “Number … on day 5 after infection” value [1] of the same molecule?
Its value is 10.

What about the “Number … on day 6 after infection” value [1] of the same molecule?
The value was 10.

And the “Number … on day 7 after infection” value [1]?
The value was 9.

And the LD50 [2]?
Its LD50 is 1000 mg/kg.

Which “Number … on day 1 after infection” value [1] does the source give for `OC(Cc1ccccc1)(Cn1ccnc1)c1ccc(Cl)cc1` (stereo not drawn) [Example 15, 1-phenyl-2-(4-chlorophenyl)-3-(imidazol-1-yl)-propan-2-ol nitrate] here?
Its value is 10.

What about the “Number … on day 2 after infection” value [1] of the same molecule?
Its value is 10.

And the “Number … on day 3 after infection” value [1]?
Its value is 10.

And the “Number … on day 4 after infection” value [1]?
Its value is 10.

What about the “Number … on day 5 after infection” value [1] of the same molecule?
The value was 10.

What about the “Number … on day 6 after infection” value [1] of the same molecule?
Its value is 10.

And the “Number … on day 7 after infection” value [1]?
Its value is 9.

What does the source list for `OC(Cc1ccc(Cl)cc1)(Cn1ccnc1)c1ccccc1` (stereo not drawn) [Example 28, 1-(4-chlorophenyl)-2-phenyl-3-(imidazol-1-yl)-propan-2-ol nitrate]?
growth inhibition level, Candida albicans [3]: + ++; Number of Animals surviving on day 1 after infection [1]: 10; Number of Animals surviving on day 2 after infection [1]: 10; Number of Animals surviving on day 3 after infection [1]: 10; Number of Animals surviving on day 4 after infection [1]: 10; Number of Animals surviving on day 5 after infection [1]: 10; Number of Animals surviving on day 6 after infection [1]: 10; Number of Animals surviving on day 7 after infection [1]: 10

Which results are given for `Cl.OC(Cc1ccc(Cl)cc1)(Cn1ccnc1)c1ccc(Cl)cc1Cl` (stereo not drawn) [Example 30, 1-(4-chlorophenyl)-2-(2,4-dichlorophenyl)-3-(imidazol-1-yl)-propan-2-ol hy drochloride]?
Number of Animals surviving on day 1 after infection [1]: 10; Number of Animals surviving on day 2 after infection [1]: 10; Number of Animals surviving on day 3 after infection [1]: 10; Number of Animals surviving on day 4 after infection [1]: 10; Number of Animals surviving on day 5 after infection [1]: 10; Number of Animals surviving on day 6 after infection [1]: 10; Number of Animals surviving on day 7 after infection [1]: 10; LD50 [2]: 1000 mg/kg

For `OC(Cc1ccc(Cl)cc1Cl)(Cn1ccnc1)c1ccccc1` (stereo not drawn) [Example 34, 1-(2,4-dichlorophenyl)-2-phenyl-3-(imidazol-1-yl)-propan-2-ol nitrate], which “Number … on day 1 after infection” value [1] is on record?
Its value is 10.

And the “Number … on day 2 after infection” value [1]?
Its value is 10.

And the “Number … on day 3 after infection” value [1]?
Its value is 10.

What about the “Number … on day 4 after infection” value [1] of the same molecule?
The value was 10.

What about the “Number … on day 5 after infection” value [1] of the same molecule?
The value was 10.

And the “Number … on day 6 after infection” value [1]?
The value was 10.

What about the “Number … on day 7 after infection” value [1] of the same molecule?
Its value is 9.

Which results are given for `Clc1ccc(COC(Cn2ccnc2)c2ccc(Cl)cc2Cl)c(Cl)c1.O=[N+]([O-])O` (stereo not drawn) [MICONAZOL, 1-[2,4-dichloro-β-(2,4-dichlorobenzyloxy)-phenethyl]imidazole nitrate, reference compound]?
animals still alive on the last day of the treatment ([1]; last day of treatment): 20%; Number of Animals surviving on day 1 after infection [1]: 10; Number of Animals surviving on day 2 after infection [1]: 10; Number of Animals surviving on day 3 after infection [1]: 8; Number of Animals surviving on day 4 after infection [1]: 8; Number of Animals surviving on day 5 after infection [1]: 6; Number of Animals surviving on day 6 after infection [1]: 4; Number of Animals surviving on day 7 after infection [1]: 2
